pEC50, pIC50: −log10 of the molar value.
What follows are molecules tested against T1, human GPR119 (Homo sapiens, UniProt Q8TDV5) (assay: GPR119 screening assay (LANCE cAMP, HEK 293 cells stably transfected with human GPR119)). Conditions: HEK 293 cells stably transfected with human GPR119, LANCE cAMP; read-out: GPR 119 cAMP EC50.
T1 construct: expressed in transfected cells
T1 sequence (Q8TDV5 1-335): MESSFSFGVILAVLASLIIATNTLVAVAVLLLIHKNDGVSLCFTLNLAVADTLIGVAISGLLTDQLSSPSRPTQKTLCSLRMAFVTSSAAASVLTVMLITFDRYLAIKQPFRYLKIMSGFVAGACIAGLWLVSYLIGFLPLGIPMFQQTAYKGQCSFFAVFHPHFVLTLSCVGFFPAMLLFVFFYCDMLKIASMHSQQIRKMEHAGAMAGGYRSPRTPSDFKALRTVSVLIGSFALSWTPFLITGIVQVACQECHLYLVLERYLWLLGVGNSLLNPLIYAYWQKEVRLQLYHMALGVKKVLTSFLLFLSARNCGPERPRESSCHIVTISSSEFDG
Assay type: cell-based

Compared with `COc1cc(C(=O)N2CCC3(CC2)CN(c2ccccc2F)C3c2ccc(Cl)cc2)cc(OC)c1OC` (centres unmarked), `COc1cc(C(=O)N2CCC3(CC2)CN(c2ccc(C)cc2)C3c2ccc(Cl)cc2)cc(OC)c1OC` (centres unmarked) is 0.42 log units lower in pEC50: 6.29 for the first, 5.87 for the second.

`COc1cc(C(=O)N2CCC3(CC2)CN(CC(C)C)C3c2ccccc2)cc(OC)c1OC` (centres unmarked) and `COc1cc(C(=O)N2CCC3(CC2)CN(Cc2ccccc2Cl)C3c2ccccc2)cc(OC)c1OC` (centres unmarked) are within 0.2 log units of each other in pEC50: 6.05 for the first, 5.90 for the second.

`COc1cc(C(=O)N2CCC3(CC2)CN(Cc2ccc(F)cc2F)C3c2ccc(F)cc2)cc(OC)c1OC` (centres unmarked) and `O=C(c1ccc2c(c1)OCCCO2)N1CCC2(CC1)CN(Cc1ccc(F)cc1F)C2c1ccc(F)cc1` (centres unmarked) are within 0.2 log units of each other in pEC50: 5.92 for the first, 5.89 for the second.

What follows are molecules tested against T2, human Cav3.2 (Homo sapiens, UniProt O95180) (assay: Ionworks screen for hCaV3.2 (IonWorks HT voltage clamp, T-type calcium current)). Conditions: IonWorks (IW) screen.
T2 construct: expressed in transfected cells
T2 sequence (O95180 whole entry): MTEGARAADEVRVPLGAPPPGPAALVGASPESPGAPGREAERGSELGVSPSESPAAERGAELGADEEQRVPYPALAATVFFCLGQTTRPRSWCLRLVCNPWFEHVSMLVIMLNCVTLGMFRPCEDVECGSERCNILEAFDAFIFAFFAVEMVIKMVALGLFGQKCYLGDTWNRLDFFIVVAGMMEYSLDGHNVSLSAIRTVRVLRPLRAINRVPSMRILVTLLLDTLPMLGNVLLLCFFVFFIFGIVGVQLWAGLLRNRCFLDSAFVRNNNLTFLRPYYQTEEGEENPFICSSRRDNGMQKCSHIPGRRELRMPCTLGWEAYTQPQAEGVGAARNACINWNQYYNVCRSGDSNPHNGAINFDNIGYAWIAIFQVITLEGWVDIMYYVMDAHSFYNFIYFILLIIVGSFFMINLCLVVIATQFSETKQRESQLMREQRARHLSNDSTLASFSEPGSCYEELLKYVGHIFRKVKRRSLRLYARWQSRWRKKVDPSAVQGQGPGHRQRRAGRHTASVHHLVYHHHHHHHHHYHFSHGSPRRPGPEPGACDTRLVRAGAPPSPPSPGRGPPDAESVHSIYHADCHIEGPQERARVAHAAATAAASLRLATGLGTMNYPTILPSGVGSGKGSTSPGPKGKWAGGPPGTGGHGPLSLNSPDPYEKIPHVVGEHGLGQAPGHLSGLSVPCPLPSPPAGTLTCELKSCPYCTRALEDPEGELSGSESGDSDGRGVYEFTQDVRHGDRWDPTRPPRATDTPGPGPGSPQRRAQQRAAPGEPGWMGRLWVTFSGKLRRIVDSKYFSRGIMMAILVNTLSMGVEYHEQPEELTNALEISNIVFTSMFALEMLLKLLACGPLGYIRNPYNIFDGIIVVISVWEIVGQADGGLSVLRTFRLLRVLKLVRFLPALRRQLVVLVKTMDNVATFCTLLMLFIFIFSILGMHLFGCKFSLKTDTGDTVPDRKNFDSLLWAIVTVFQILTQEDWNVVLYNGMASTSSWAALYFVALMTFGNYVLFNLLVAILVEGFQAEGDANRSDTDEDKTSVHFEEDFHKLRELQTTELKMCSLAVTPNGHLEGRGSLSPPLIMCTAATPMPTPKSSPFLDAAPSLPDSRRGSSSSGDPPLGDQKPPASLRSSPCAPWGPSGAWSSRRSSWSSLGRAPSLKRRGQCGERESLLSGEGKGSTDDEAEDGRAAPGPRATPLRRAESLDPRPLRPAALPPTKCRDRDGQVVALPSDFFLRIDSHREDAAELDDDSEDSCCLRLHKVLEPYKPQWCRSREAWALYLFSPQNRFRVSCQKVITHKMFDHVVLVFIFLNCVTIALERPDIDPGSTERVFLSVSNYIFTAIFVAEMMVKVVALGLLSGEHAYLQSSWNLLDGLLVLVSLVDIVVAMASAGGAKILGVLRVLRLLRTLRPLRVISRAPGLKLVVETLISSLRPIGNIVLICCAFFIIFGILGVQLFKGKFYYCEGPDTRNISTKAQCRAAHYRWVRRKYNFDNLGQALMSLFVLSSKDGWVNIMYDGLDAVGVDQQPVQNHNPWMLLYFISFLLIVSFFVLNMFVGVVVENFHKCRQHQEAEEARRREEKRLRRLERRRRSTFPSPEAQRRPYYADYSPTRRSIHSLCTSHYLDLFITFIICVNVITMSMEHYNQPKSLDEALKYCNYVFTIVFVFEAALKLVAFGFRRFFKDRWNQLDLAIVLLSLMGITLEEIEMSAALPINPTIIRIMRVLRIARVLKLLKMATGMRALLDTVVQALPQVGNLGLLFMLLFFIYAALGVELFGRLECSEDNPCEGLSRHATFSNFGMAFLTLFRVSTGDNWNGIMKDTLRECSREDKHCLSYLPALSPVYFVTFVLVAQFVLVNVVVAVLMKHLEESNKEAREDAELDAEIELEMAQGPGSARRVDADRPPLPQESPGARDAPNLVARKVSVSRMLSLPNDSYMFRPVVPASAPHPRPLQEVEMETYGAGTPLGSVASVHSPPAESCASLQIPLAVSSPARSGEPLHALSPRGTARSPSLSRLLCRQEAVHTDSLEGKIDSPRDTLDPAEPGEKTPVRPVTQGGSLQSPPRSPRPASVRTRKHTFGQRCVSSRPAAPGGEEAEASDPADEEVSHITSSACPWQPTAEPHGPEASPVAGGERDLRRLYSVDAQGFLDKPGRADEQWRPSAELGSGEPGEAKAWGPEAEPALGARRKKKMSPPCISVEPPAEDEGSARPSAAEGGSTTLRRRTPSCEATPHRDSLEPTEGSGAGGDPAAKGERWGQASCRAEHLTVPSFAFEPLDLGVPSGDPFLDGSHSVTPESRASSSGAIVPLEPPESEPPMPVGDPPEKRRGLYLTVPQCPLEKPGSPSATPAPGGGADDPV
Assay type: cell-based
From the text: (§1) Functional evaluation of voltage-gated ion channels was used to determine potency and/or single concentration efficacy of proprietary compounds. Two different methodologies were used to measure ion currents: the IonWorks HT (Molecular Devices, Sunnyvale, Calif.) a moderate throughput voltage clamp screening platform that utilizes 96-well compound plates and conventional whole cell patch clamp for lower throughput, higher fidelity determinations.
HEK cells were transiently transfected and then selected for stable heterologous expression of different channel proteins of interest. Calcium channel cell lines expressed a resting potassium current, human Kir2.1, and the pore forming α-subunit of voltage-gated calcium channels. In the case of Cav2.1 cells the auxiliary subunit, β2a, was also expressed. Calcium channel lines that were used to generate the data in this document expressed either human Cav3.2, rat Cav3.2 or human Cav2.1. The human heart sodium channel, hNav1.5, was stably expressed in CHO cells. These cells were licensed from the University of Pennsylvania.
Cell lines were grown at 37° C. in humidified incubators, equilibrated with 95% air/5% CO2. CHO cells were grown in Ham's F-12 medium. HEK cells were grown in DMEM. All media were supplemented with 10% heat-inactivated fetal bovine serum, penicillin, streptomycin and appropriate selection antibiotics (zeocin, geneticin and/or hygromycin). Cells were passaged when 80% confluent or less.
Ionworks Screen for hCaV3.2
The extracellular buffer for experiments using this instrument contained the following (mM) (NaCl 125, HEPES 10, KCl 5.4, CaCl2 1.8, MgCl2 1.8, 0.2 BaCl2 pH 7.35). The IonWorks uses amphotericin to gain electrical access to the cell interior. The internal solution contained (mM concentrations): 130 K-gluconate, 20 KCl, 5 HEPES-KOH (pH 7.25), 2 CaC12, 1 MgCl2. Amphotericin added at 5 mg in 65 ml when present (in 650 μl DMSO). All internal and external solutions for this experiment contain 1% DMSO. Cells were acutely trypsinized from a T-75 flask and resuspended in extracellular buffer at a density of 2×10^5 cells/ml.
Experiments were performed at room temperature, Transmembrane potential was held at −100 mV for 5 seconds prior to running the voltage protocol. During this time leak currents were measured during a step to −110 mV (200 milliseconds). T-type calcium currents were activated with a 250 millisecond step to −20 mV. This depolarization step was repeated for a total of 10 pulses with an interpulse interval of 1 second. Data were excluded if the following acceptance criteria were not met: total resistance for the pre-compound scan >65 MΩ, pre-compound current >250 pA, post compound total resistance >50 MΩ.
T-type currents were measured as the peak inward current minus the current at the end of the 250 msec step to −20 mV. After the recoding configuration was established there was a pre-compound measurement of current amplitude Compound was added as a 3× solution containing 1% DMSO. After incubation with compound for 10 minutes currents were measured again. The current amplitude after compound addition was divided by the pre-compound current for pulse 10 to determine the traction of current remaining after compound addition. For each compound, 8-point concentration-effect relationships were measured with ½ log serial dilutions.

Compared with `CC[C@H](C)[C@H](NC(=O)N1CCC2(CC1)CN(CCC(C)C)C2c1ccc(F)cc1)C(=O)OC` (some centres unmarked), `CC[C@H](C)[C@H](NC(=O)N1CCC2(CC1)CN(C(C)C)C2c1ccc(Br)cc1)C(=O)OC` (single isomer, unassigned) is 0.38 log units higher in pIC50: 7.24 for the first, 7.62 for the second. The second is the more potent here.

`CC(C)CCN1CC2(CCN(C(=O)NC34CC5CC(CC(C5)C3)C4)CC2)C1c1ccc(F)cc1` (centres unmarked) and `CC(C)CCN1CC2(CCN(C(=O)Nc3cc(F)cc(F)c3)CC2)C1c1ccc(F)cc1` (centres unmarked) are within 0.2 log units of each other in pIC50: 7.17 for the first, 7.15 for the second.

`CC[C@H](C)[C@H](NC(=O)N1CCC2(CC1)CN(C(C)C)C2c1ccc(-c2ccccc2)cc1)C(=O)OC` (some centres unmarked) and `CC[C@H](C)[C@H](NC(=O)N1CCC2(CC1)CN(C(C)C)C2c1ccc(Cl)cc1)C(=O)OC(C)(C)C` (single isomer, unassigned) are within 0.2 log units of each other in pIC50: 7.12 for the first, 7.07 for the second.

First: CC(C)N1CC2(CCN(C(=O)Nc3cccc(Cl)c3)CC2)C1c1ccc(Cl)cc1 (single isomer, unassigned)
Second: CC(C)N1CC2(CCN(C(=O)Nc3cccc(F)c3)CC2)C1c1ccc(Cl)cc1 (single isomer, unassigned)
The pIC50 of the first is 0.23 log units higher: 7.42 for the first, 7.19 for the second.

`CC(C)N1CC2(CCN(C(=O)Nc3cc(F)cc(F)c3)CC2)C1c1ccc(Br)cc1` (single isomer, unassigned) and `CC(C)N1CC2(CCN(C(=O)Nc3cccc(F)c3)CC2)C1c1ccc(Br)cc1` (single isomer, unassigned) are within 0.2 log units of each other in pIC50: 7.36 for the first, 7.24 for the second.

`CC(C)N1CC2(CCN(C(=O)Nc3ccc(Cl)cc3)CC2)C1c1ccc(Cl)cc1` (single isomer, unassigned) and `CC(C)N1CC2(CCN(C(=O)Nc3cccc(C#N)c3)CC2)C1c1ccc(Cl)cc1` (single isomer, unassigned) are within 0.2 log units of each other in pIC50: 7.31 for the first, 7.30 for the second.

`O=C(Nc1cc(F)cc(F)c1)N1CCC2(CC1)CN(c1ccc(F)c(Cl)c1)C2c1ccccn1` (single isomer, unassigned) and `CC(C)CCN1CC2(CCN(C(=O)Nc3cc(F)cc(F)c3)CC2)C1c1ccc(F)cc1` (single isomer, unassigned) are within 0.2 log units of each other in pIC50: 7.22 for the first, 7.12 for the second.

In the case of `CC[C@H](C)[C@H](NC(=O)N1CCC2(CC1)CN(CCC(C)C)C2c1ccc(F)cc1)C(=O)OC` (single isomer, unassigned), the pIC50 was 7.35.

Each molecule was assayed against T2, human Cav3.2 (assay: Conventional whole cell patch clamp, hCav3.2 current). Conditions: values marked * in Table 10; voltage clamp assay.
Assay type: cell-based
From the text: as §1
HEK cells were transiently transfected and then selected for stable heterologous expression of different channel proteins of interest. Calcium channel cell lines expressed a resting potassium current, human Kir2.1, and the pore forming α-subunit of voltage-gated calcium channels. In the case of Cav2.1 cells the auxiliary subunit, β2a, was also expressed. […]
The holding potential was −100 mV for all protocols. […] Cav3.2 currents were measured as the peak current 10-30 milliseconds after the voltage was stepped to −35 mV. […] For hCav2.1 currents were activated with a 200 millisecond step to 0 mV. hCav2.1 currents were measured from the leak-subtracted traces as the average current between 190 and 200 milliseconds after the step to 0 mV. […] Sodium currents were measured from leak subtracted traces as the peak transient inward current.
All drug effects were measured after a steady-state effect was achieved. […]

Compared with `CC(C)CCN1CC2(CCN(C(=O)NC34CC5CC(CC(C5)C3)C4)CC2)C1c1ccc(F)cc1` (centres unmarked), `CC[C@H](C)[C@H](NC(=O)N1CCC2(CC1)CN(C(C)C)C2c1ccc(Br)cc1)C(=O)OC` (single isomer, unassigned) is 0.40 log units higher in pIC50: 6.69 for the first, 7.09 for the second. The second is the more potent here.

From patent publication US7638526B2, “Azetidine derivatives useful in treating pain, diabetes and disorders of lipid metabolism” (Schering Corporation, priority 2006, dated 2009)
